ChEMBL document CHEMBL1157432, “Effect of linkage geometry on biological activity in thiourea- and guanidine-substituted acridines and platinum-acridines” (Bioorg Med Chem Lett, 2008)

What was measured:
NCI-H460 = test: Cytotoxicity against human NCI-H460 cells after 72 hrs by MTS method; assay type: functional, cell-based; details: NCI-H460, 72 h
HL-60 = test: Cytotoxicity against human HL60 cells after 72 hrs by MTS method; assay type: functional, cell-based; details: HL-60, 72 h
[1] = Dissociation constant, pKa of the compound; assay type: physicochemical

| SMILES | IC50 (NCI-H460) [µM] | IC50 (HL-60) [µM] | pKa [1] |
| --- | --- | --- | --- |
| CNC(=N)N(C)CCNc1c2ccccc2nc2ccccc12 | 10.3 | 79.7 | 9 |
| CNC(=N)N(C)CCNC(=O)c1cccc2cc3ccccc3nc12 | > 100 | 8.4 |  |
| CNC(=S)N(C)CCNC(=O)c1cccc2cc3ccccc3nc12 | 30.9 | > 100 |  |
| CNC(=S)N(C)CCNc1c2ccccc2nc2ccccc12 [ACRAMTU] |  |  | 9 |
